US9012481B2, “Benzoarylureido compounds, and composition for prevention or treatment of neurodegenerative brain disease containing the same” (Korea Institute of Science and Technology, priority 2009, dated 2015)
Like-named read-outs stand apart in the source and are kept apart here.

How the values were obtained:
BV-2 cells = experiment: Cell viability (MTT analysis) of beta-amyloid treated BV-2 cells; type: cell-based; settings: Mus musculus, BV-2 cells, average of three experiments; for viability at 0.1 µM: compound 100 nM for 24 hours after 50 μM beta-amyloid for 2 hours; for viability at 1 µM: compound 1000 nM for 24 hours after 50 μM beta-amyloid for 2 hours; for viability at 0.5 µM: BV-2, read-out: cell viability by MTT analysis, compound 500 nM for 24 hours after 50 μM beta-amyloid for 2 hours
Protocol: Beta-amyloid (Aβ25-35, Sigma Chemical Co., St. Louis, Mo., USA) was diluted with aseptic desalted water and preservative solution (1 mM, GIBCO), and kept in aliquots at −70° C. To the treatment of beta-amyloid, beta-amyloid preservative solution was diluted to desired concentrations in a treatment medium (DMEM, GIBCO). The reagents were newly provided as a preservative solution (10 mM) under DMSO (dimethylsulfoxide), and diluted in treatment medium to desired concentrations.
BV-2 microglia cells (allotted from Pharmacology Division of Ajou University) were cultivated in DMEM (Dulbecco's Modified Eagle's Medium) supplemented with 5% fetal bovine serum (Invitrogen, Carlsbad, Calif., USA), sou/Ml penicillin (Invitrogen, Carlsbad, Calif., USA), and 50 μg/Ml streptomycin (Invitrogen, Carlsbad, Calif., USA) under the atmosphere condition with 5% CO2 and 95% air at 37° C. The medium was replaced once a day, the cells were plate-cultured in a density according to the scale of each experiment.
BV-2 cells were plate-cultured in 96-well plate at the density of 5×10^4, the cell viability was measured according to a conventional MTT analysis method and lactate dehydrogenase (LDH) analysis method. The MTT analysis depends on the metabolism ability of mitochondria of living cell, and reflexes intracellular redox states. The cultured cells were treated with MTT a solution (final concentration: 1 mg/Ml) for 4 hours. Deep blue formazan crystal generated in the original cells was dissolved in a lysis buffer, and then, the absorbance was detected at 595 nm with microplate reader. The LDH activity released from the culture medium was detected, which was evaluated as a cell death index. The culture medium was added to a reagent (test, Sigma Chemical Co, St. Louis, Mo., USA) containing sodium lactate, NADH and sodium pyruvate, and then, the absorbance reduction by NADH at 340 nm was measured. The result was calculated assuming that the LDH activity in homogenate solution of the non-treated control is 100%.
[…] For microscope analysis, BV-2 cells were used in 6-well plate at the density of 5×10^5 cells/well, for MTT analysis, BV-2 cells were used in 96-well plate at the density of 5×10^4 cells/well.
The obtained prevention effects of KHG25967 compound on toxicity induced by beta-amyloid in BV-2 cells were FIGS. 1A and 1b.
For MTT analysis, BV-2 cells were used on 96-well plate in the density of 5×10^4 cells/well. The quantitative analysis results (unit: %) for the cell viability obtained by MTT analysis were shown in Table 2, wherein the values are represented by the average of three experiments per each concentration.

[1] = compound 50 μM for 24 hours after 50 μM beta-amyloid for 2 hours, read-out: cell viability by MTT analysis

| melting point [°C] | SMILES | viability at 50 µM (BV-2 cells; [1]) [%] | other results |
| --- | --- | --- | --- |
| 257 | Cc1ccc(CNC(=O)Nc2nc3ccccc3s2)cc1 [KHG25948, 1-(benzo[d]thiazole-2-yl)-3-(4-methylbenzyl)urea] | 30 | – |
| 294 | CCCCOC(=O)CNC(=O)Nc1nc2ccccc2s1 [KHG25954, butyl 2-(3-benzo[d]thiazole-2-ylureido)acetate] | 48 | – |
| 291 | CCOC(=O)CNC(=O)Nc1nc2ccc(F)cc2s1 [KHG25956, ethyl 2-(3-(6-fluorobenzo[d]thiazole-2-yl)ureido)acetate] | 36 | – |
| – | CCOC(=O)CNC(=O)Nc1nc2ccc(Cl)cc2o1 [KHG25989, ethyl 2-(3-(6-chlorobenzo[d]oxazole-2-yl)ureido)acetate] | 55 | – |
| – | Cc1ccc(CNC(=O)Nc2nc3ccc(Cl)cc3o2)cc1 [KHG25990] | 37 | – |
| 278 | CCOC(=O)CCCNC(=O)Nc1nc2ccccc2s1 [KHG26004, ethyl 4-(3-benzo[d]thiazole-2-ylureido)butanoate] | 37 | – |
| 256 | CCOC(=O)CCNC(=O)Nc1nc2ccccc2s1 [KHG26005, ethyl 3-(3-benzo[d]thiazole-2-ylureido)propanoate] | 40 | – |
| 281.9 | CCOC(=O)CNC(=O)Nc1nc2ccc(OC)cc2s1 [KHG26019, ethyl 2-(3-(6-methoxybenzo[d]thiazole-2-yl)ureido)acetate] | 47 | – |
| 264 | CCOC(=O)CCNC(=O)Nc1nc2ccccc2[nH]1 [KHG26027, ethyl 3-(3-1H-benzo[d]imidazole-2-ylureido)propanoate] | 45 | – |
| 277 | CCOC(=O)CCCNC(=O)Nc1nc2ccccc2[nH]1 [KHG26028, ethyl 4-(3-1H-benzo[d]imidazole-2-ylureido)butanoate] | 34 | – |
| 157 | CCOC(=O)CNC(=O)Nc1nc2ccccc2n1C [KHG26029, ethyl 2-(3-(1-methyl-1H-benzo[d]imidazole-2-yl)ureido)acetate] | 70 | viability at 0.1 µM (BV-2 cells): 86%; viability at 1 µM (BV-2 cells): 73% |
| 105 | CCOC(=O)CCNC(=O)Nc1nc2ccccc2n1C [KHG26030, ethyl 3-(3-(1-methyl-1H-benzo[d]imidazole-2-yl)ureido)propanoate] | 75 | viability at 0.1 µM (BV-2 cells): 60%; viability at 1 µM (BV-2 cells): 76% |
| 81 | CCOC(=O)CCCNC(=O)Nc1nc2ccccc2n1C [KHG26031, ethyl 4-(3-(1-methyl-1H-benzo[d]imidazole-2-yl)ureido)butanoate] | 56 | – |
| – | O=C(O)CNC(=O)Nc1nc2ccccc2s1 [KHG26096, potassium 2-(3-benzo[d]thiazole-2-ylureido)acetate] | – | viability at 0.5 µM (BV-2 cells): 72% |
| – | COc1ccc2nc(NC(=O)NCC(=O)O)sc2c1 [KHG26175, potassium 2-(3-(6-methoxybenzo[d]thiazole-2-yl)ureido)acetate] | – | viability at 0.5 µM (BV-2 cells): 76% |
| – | Cn1c(NC(=O)NCCC(=O)O)nc2ccccc21 [KHG26222, potassium 3-(3-(1-methyl-1H-benzo[d]imidazole-2-yl)ureido)propanoate] | – | viability at 0.5 µM (BV-2 cells): 33% |
| – | CCNC(=O)Nc1nc2ccccc2s1 [KHG26332, 1-(benzo[d]thiazole-2-yl)-3-ethylurea] | – | viability at 50 µM (BV-2 cells; BV-2, read-out: cell viability by MTT analysis, compound 50 μM for 24 hours after 50 μM beta-amyloid for 2 hours): 18% |
| 264 | CCOC(=O)CNC(=O)Nc1nc2ccc(OCC)cc2s1 [KHG26347, ethyl 2-(3-(6-ethoxybenzo[d]thiazole-2-yl)ureido)acetate] | – | – |
| 197 | CCOc1ccc2nc(NC(=O)NCC(=O)O)sc2c1 [KHG26348, 2-(3-(6-ethoxybenzo[d]thiazole-2-yl)ureido)acetic acid] | – | – |
| 295 | CCOC(=O)CNC(=O)Nc1nc2ccc(Cl)cc2s1 [KHG26349, ethyl 2-(3-(6-chlorobenzo[d]thiazole-2-yl)ureido)acetate] | – | – |
| 213 | CCOC(=O)CNC(=O)Nc1nc2c(Cl)cccc2s1 [KHG26351, ethyl 2-(3-(4-chlorobenzo[d]thiazole-2-yl)ureido)acetate] | – | – |
| 268 | CCOC(=O)CNC(=O)Nc1nc2cc(C)c(C)cc2s1 [KHG26353, ethyl 2-(3-(5,6-dimethylbenzo[d]thiazole-2-yl)ureido)acetate] | – | – |
| 197 | Cn1c(NC(=O)NCCCC(=O)O)nc2ccccc21 [KHG26358, 4-(3-(1-methyl-1H-benzo[d]imidazole-2-yl)ureido)butanoic acid] | – | – |

| SMILES | melting point [°C] | viability at 50 µM (BV-2 cells; [1]) [%] | other results |
| --- | --- | --- | --- |
| O=C(O)CCCNC(=O)Nc1nc2ccccc2s1 [KHG26025, 4-(3-benzo[d]thiazole-2-ylureido)butanoic acid] | 210 | 90 | viability at 0.1 µM (BV-2 cells): 73%; viability at 1 µM (BV-2 cells): 89% |
| O=C(O)CCNC(=O)Nc1nc2ccccc2s1 [KHG26026, 3-(3-benzo[d]thiazole-2-ylureido)propanic acid] | 243 | 82 | viability at 0.1 µM (BV-2 cells): 66%; viability at 1 µM (BV-2 cells): 85% |
| Cn1c(NC(=O)NCC(=O)[O-])nc2ccccc21.[K+] [KHG26172, potassium 2-(3-(1-methyl-1H-benzo[d]imidazole-2-yl)ureido)acetate] | 229 | – | viability at 0.5 µM (BV-2 cells): 68% |
| O=C([O-])CNC(=O)Nc1nc2ccc(Cl)cc2s1.[K+] [KHG26177, potassium 2-(3-(6-chlorobenzo[d]thiazole-2-yl)ureido)acetate] | 237 | – | viability at 0.5 µM (BV-2 cells): 62% |
| O=C([O-])CNC(=O)Nc1nc2c(Cl)cccc2s1.[K+] [KHG26178, potassium 2-(3-(4-chlorobenzo[d]thiazole-2-yl)ureido)acetate] | 259 | – | viability at 0.5 µM (BV-2 cells): 59% |
| Cc1cc2nc(NC(=O)NCC(=O)[O-])sc2cc1C.[K+] [KHG26180, potassium 2-(3-(5,6-dimethylbenzo[d]thiazole-2-yl)ureido)acetate] | 278 | – | viability at 0.5 µM (BV-2 cells): 62% |
| Cc1ccc2nc(NC(=O)NCC(=O)[O-])sc2c1.[K+] [KHG26216, potassium 2-(3-(6-methylbenzo[d]thiazole-2-yl)ureido)acetate] | 236 | – | viability at 0.5 µM (BV-2 cells): 62% |
| Cc1cccc2sc(NC(=O)NCC(=O)[O-])nc12.[K+] [KHG26217, potassium 2-(3-(4-methylbenzo[d]thiazole-2-yl)ureido)acetate] | 264.4 | – | viability at 0.5 µM (BV-2 cells): 49% |
| O=C([O-])CCNC(=O)Nc1nc2ccccc2s1.[K+] [KHG26220, potassium 3-(3-benzo[d]thiazole-2-ylureido)propanoate] | 249 | – | viability at 0.5 µM (BV-2 cells): 33% |
| COc1ccc2nc(NC(=O)NCC(=O)O)sc2c1 [KHG26346, 2-(3-(6-methoxybenzo[d]thiazole-2-yl)ureido)acetic acid] | 198.3 | – | – |
| O=C(O)CNC(=O)Nc1nc2ccc(Cl)cc2s1 [KHG26350, 2-(3-(6-chlorobenzo[d]thiazole-2-yl)ureido)acetic acid] | 216 | – | – |
| O=C(O)CNC(=O)Nc1nc2c(Cl)cccc2s1 [KHG26352, 2-(3-(4-chlorobenzo[d]thiazole-2-yl)ureido)acetic acid] | 198 | – | – |
| Cc1cc2nc(NC(=O)NCC(=O)O)sc2cc1C [KHG26354, 2-(3-(5,6-dimethylbenzo[d]thiazole-2-yl)ureido)acetic acid] | 198 | – | – |
| Cc1ccc2nc(NC(=O)NCC(=O)O)sc2c1 [KHG26355, 2-(3-(6-methylbenzo[d]thiazole-2-yl)ureido)acetic acid] | 201 | – | – |
| Cc1cccc2sc(NC(=O)NCC(=O)O)nc12 [KHG26356, 2-(3-(4-methylbenzo[d]thiazole-2-yl)ureido)acetic acid] | 203 | – | – |
| Cn1c(NC(=O)NCCC(=O)O)nc2ccccc21 [KHG26357, 3-(3-(1-methyl-1H-benzo[d]imidazole-2-yl)ureido)propane acid] | 237 | – | – |
